ChEMBL document CHEMBL5291721, “A preclinical secondary pharmacology resource illuminates target-adverse drug reaction associations of marketed drugs” (Nat Commun, 2023)

Experiments:
Mu-type opioid receptor = Mu-type opioid receptor (Homo sapiens, UniProt P35372)
[1] = molecular target: Prostaglandin G/H synthase 1 (Homo sapiens, UniProt P23219); assay type: functional
[2] = molecular target: Sodium-dependent noradrenaline transporter (Homo sapiens, UniProt P23975)
Adenosine receptor A1 = molecular target: T1, Adenosine receptor A1 (Homo sapiens, UniProt P30542)
T1 sequence (P30542 whole entry): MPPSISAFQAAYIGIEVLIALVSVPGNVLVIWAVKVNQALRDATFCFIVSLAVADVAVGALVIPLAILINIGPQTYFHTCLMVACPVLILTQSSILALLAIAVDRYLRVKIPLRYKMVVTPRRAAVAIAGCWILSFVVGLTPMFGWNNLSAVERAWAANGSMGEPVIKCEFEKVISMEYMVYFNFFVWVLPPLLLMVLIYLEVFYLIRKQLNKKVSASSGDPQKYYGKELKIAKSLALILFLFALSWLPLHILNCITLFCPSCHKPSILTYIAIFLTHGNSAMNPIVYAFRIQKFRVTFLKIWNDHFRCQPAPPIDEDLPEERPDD

[3] = molecular target: Gamma-aminobutyric acid receptor subunit alpha-1 (Rattus norvegicus, UniProt P62813)
[4] = molecular target: T2, Alpha-2A adrenergic receptor (Homo sapiens, UniProt P08913); assay type: functional, cell-based
T2 sequence (P08913 whole entry): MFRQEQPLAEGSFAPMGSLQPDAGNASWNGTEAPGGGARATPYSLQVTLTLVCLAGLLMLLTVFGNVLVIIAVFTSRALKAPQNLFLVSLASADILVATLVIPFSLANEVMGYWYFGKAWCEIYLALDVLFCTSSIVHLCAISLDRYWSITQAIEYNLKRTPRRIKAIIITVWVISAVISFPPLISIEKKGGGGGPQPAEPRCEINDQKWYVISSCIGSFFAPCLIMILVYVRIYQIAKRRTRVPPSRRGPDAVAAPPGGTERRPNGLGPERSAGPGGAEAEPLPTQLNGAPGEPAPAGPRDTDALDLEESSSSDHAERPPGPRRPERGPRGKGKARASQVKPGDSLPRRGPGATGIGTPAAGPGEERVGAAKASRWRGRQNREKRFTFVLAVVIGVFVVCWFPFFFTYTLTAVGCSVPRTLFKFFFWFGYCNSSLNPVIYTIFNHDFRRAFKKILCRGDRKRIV

[5] = molecular target: T3, Muscarinic acetylcholine receptor M2 (Homo sapiens, UniProt P08172); assay type: functional, cell-based
T3 sequence (P08172 whole entry): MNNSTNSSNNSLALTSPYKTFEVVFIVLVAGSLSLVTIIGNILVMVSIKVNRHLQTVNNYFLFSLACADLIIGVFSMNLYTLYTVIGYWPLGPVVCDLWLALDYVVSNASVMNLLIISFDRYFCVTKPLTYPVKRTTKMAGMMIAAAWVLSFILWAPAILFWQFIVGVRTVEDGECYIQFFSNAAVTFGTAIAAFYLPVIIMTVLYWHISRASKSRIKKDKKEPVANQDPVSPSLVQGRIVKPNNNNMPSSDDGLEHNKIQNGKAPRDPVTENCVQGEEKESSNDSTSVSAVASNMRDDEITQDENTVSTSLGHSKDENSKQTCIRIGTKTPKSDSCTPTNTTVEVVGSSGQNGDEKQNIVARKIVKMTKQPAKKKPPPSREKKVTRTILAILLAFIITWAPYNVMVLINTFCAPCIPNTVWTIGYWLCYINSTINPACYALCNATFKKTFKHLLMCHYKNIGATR

Endothelin-1 receptor = molecular target: T4, Endothelin-1 receptor (Homo sapiens, UniProt P25101)
T4 sequence (P25101 whole entry): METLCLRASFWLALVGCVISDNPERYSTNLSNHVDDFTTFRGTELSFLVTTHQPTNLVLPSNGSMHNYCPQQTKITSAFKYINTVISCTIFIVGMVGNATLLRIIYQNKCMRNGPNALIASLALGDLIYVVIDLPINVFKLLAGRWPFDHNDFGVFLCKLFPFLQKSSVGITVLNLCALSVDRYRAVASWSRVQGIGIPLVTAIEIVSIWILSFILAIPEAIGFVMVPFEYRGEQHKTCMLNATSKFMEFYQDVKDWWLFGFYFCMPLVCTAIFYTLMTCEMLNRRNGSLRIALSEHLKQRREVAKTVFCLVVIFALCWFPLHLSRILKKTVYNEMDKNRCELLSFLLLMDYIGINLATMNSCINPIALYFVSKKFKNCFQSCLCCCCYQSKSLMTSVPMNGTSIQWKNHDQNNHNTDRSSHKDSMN

Histamine H2 receptor = Histamine H2 receptor (Homo sapiens, UniProt P25021); assay type: functional, cell-based
Progesterone receptor = molecular target: T5, Progesterone receptor (Homo sapiens, UniProt P06401); assay type: functional
T5 sequence (P06401 whole entry): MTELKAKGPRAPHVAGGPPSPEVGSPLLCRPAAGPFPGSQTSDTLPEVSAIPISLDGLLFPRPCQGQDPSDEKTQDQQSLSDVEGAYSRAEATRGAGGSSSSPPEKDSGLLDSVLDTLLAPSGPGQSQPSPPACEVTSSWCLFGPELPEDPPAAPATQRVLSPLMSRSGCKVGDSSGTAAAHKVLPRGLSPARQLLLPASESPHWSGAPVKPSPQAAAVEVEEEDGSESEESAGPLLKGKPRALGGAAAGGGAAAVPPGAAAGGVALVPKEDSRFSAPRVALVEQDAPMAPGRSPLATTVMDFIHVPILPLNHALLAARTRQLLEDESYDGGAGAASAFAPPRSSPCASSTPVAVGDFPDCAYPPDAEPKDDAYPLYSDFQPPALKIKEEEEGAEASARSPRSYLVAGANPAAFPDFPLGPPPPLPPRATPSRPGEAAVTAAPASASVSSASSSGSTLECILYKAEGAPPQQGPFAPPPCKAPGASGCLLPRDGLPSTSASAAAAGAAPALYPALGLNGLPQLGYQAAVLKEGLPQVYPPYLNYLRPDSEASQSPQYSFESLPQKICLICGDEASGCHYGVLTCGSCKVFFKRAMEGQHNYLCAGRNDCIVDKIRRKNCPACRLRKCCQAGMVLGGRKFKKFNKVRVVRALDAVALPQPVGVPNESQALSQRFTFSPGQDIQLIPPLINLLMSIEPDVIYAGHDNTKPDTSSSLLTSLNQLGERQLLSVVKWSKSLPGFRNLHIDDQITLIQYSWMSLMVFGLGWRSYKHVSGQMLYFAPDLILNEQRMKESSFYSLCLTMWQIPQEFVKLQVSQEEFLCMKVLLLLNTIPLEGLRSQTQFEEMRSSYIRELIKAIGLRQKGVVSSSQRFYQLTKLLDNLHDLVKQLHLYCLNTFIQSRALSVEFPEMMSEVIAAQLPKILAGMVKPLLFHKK

D(3) dopamine receptor = D(3) dopamine receptor (Homo sapiens, UniProt P35462)
Further: assay procedure not described here.

D(3) dopamine receptor, sequence (P35462 whole entry): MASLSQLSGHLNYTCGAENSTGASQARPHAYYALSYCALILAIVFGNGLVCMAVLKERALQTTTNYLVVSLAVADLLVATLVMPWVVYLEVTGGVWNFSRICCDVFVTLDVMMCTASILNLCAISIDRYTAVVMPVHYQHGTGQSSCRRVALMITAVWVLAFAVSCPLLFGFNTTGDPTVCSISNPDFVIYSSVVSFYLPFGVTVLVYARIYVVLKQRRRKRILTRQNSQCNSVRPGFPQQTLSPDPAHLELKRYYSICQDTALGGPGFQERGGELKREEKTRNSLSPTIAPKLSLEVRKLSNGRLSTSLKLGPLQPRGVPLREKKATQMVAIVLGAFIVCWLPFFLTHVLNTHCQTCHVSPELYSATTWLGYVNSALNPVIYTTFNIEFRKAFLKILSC
Prostaglandin G/H synthase 1, sequence (P23219 whole entry): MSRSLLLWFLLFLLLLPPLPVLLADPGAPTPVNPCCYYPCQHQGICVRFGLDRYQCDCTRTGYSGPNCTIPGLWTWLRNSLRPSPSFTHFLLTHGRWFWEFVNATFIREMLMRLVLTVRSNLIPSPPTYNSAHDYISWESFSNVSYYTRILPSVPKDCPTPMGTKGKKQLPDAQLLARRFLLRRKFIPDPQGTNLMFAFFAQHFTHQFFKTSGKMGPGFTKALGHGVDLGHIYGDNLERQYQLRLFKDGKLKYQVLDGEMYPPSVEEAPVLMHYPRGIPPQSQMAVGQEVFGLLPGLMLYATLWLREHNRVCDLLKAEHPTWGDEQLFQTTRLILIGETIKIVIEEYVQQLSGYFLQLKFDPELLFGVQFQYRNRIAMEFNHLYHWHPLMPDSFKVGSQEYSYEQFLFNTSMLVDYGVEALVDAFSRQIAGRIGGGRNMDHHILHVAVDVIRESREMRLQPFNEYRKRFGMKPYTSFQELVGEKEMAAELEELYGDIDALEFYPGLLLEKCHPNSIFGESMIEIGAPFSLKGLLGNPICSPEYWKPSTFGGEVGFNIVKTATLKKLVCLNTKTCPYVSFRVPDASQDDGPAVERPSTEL
Histamine H2 receptor, sequence (P25021 whole entry): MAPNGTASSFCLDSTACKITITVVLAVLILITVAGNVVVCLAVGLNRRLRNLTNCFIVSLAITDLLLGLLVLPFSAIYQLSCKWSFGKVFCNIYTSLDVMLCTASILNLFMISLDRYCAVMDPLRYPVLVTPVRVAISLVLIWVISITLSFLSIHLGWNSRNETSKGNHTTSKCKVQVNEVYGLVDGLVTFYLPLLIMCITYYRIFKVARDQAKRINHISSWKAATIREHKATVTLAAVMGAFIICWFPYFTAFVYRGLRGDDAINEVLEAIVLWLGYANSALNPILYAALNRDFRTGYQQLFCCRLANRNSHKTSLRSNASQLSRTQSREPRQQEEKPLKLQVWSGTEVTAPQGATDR
Gamma-aminobutyric acid receptor subunit alpha-1, sequence (P62813 whole entry): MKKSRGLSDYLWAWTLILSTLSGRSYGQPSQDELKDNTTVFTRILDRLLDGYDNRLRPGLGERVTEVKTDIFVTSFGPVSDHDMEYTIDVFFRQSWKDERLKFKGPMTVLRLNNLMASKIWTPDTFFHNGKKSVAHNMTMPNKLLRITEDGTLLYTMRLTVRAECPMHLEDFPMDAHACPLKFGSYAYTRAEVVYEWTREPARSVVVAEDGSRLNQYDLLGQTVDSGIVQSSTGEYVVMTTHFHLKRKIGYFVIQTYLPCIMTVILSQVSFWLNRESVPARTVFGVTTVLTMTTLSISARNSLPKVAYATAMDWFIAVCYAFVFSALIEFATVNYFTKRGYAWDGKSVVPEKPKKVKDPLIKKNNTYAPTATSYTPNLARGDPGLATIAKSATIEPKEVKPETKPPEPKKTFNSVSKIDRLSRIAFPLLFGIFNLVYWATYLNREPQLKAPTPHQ
Mu-type opioid receptor, sequence (P35372 whole entry): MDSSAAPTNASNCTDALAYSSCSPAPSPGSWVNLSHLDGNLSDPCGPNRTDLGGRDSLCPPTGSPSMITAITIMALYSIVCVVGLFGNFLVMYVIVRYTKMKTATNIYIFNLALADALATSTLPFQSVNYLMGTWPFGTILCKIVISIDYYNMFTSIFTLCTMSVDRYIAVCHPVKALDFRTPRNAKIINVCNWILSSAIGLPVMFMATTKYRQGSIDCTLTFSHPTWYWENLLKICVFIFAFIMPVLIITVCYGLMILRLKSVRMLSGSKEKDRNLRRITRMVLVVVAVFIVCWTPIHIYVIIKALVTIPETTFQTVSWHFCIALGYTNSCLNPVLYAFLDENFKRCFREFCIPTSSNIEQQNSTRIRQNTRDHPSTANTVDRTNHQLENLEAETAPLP
Sodium-dependent noradrenaline transporter, sequence (P23975 whole entry): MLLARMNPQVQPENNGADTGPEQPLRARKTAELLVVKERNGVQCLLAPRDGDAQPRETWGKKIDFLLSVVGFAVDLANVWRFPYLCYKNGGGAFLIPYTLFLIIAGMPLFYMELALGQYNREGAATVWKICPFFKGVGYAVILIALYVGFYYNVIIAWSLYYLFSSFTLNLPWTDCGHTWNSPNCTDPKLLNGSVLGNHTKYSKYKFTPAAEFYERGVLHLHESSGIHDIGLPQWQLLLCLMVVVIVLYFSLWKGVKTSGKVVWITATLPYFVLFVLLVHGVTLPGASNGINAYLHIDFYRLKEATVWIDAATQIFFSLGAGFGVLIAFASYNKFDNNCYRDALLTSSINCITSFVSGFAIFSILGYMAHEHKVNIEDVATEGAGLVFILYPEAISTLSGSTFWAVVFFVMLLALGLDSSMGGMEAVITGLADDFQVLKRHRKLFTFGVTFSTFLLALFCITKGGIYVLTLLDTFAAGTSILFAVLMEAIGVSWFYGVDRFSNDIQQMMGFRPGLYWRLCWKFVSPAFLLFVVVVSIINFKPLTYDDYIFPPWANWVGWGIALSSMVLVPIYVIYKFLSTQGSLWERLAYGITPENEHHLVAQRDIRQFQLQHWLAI

CN(C)c1ccc(C(=C2C=CC(=[N+](C)C)C=C2)c2ccc(N(C)C)cc2)cc1 [GENTIAN VIOLET]
AC50 (Mu-type opioid receptor): 3.9 µM
AC50 [1]: 11.8 µM
AC50 [2]: 4.7 µM

Nc1ccc(S(N)(=O)=O)cc1 [SULFANILAMIDE]
AC50 (Adenosine receptor A1): > 30 µM
AC50 [3]: > 30 µM

HYDROXOCOBALAMIN
AC50 [4]: > 30 µM
AC50 [5]: > 30 µM
AC50 (Endothelin-1 receptor): > 30 µM
AC50 (Histamine H2 receptor): > 30 µM
AC50 (Progesterone receptor): > 30 µM
AC50 (D(3) dopamine receptor): > 30 µM
